Measurements as given in ChEMBL document CHEMBL1129354, “Molecular modeling and site-directed mutagenesis studies of a phorbol ester-binding site in protein kinase C” (J Med Chem, 1996).
Activity calls are given as the source filed them. The rule behind the calls is not given here.

Target: Protein kinase C alpha type (Homo sapiens) (UniProt P17252)
Experiment: Relative binding affinity for Protein kinase C alpha (Inactive)

- Relative binding affinity: inactive
SMILES: CCCCCCCCCCCCCCCC(=O)OC[C@@H](CO)OC(=O)CCCCCCCCCCCCCCC
